This is an account of results in patent US4690930A, “Pyrazolo[4,3-c]quinoline-3-one and imidazo[4,3-c]cinnolin-3-one derivatives and their use as psychotropic agents” (Shionogi & Co., Ltd, priority 1984, dated 1987).

The first experiment addresses benzodiazepine receptor. Description: Binding test to benzodiazepine receptor (inhibition of specific binding of tritium labeled diazepam). On the set-up: species or system Wistar rats (cerebral cortex). Conditions: 2 nM tritium labeled diazepam, rat cerebral cortex, 0° C., 60 minutes; Ki calculated from IC50. The protocol: Binding test to benzodiazepine receptor
This test was carried out in the modified method of Moeler & Okada, Science, 198, 849-851 (1977).
Receptor preparation was provided from the cerebral cortex of Wistar rats (male, 11 to 13 weeks age). Inhibitory action of the test compound on the specific binding of tritium labeled diazepam to the receptor was evaluated as follows. 2 nM tritium labeled diazepam and an aqueous solution of the test compound at 5 or 6 concentrations were incubated with the receptor preparation at 0° C. for 60 minutes. The 50% inhibitory concentration (IC50) was measured by the concentration-response curve.
The inhibitory constant (Ki) was calculated according to the following equation, in which Kd is the dissociation constant of the tritium labeled diazepam and L is the concentration of the labeled ligand. [formula]
Take `Cc1ccc(-n2nc3c4ccccc4[nH]cc-3c2=O)s1` [Ic1 -1, 2-[2-(5-Methylthienyl)]-2,5-dihydro-3H-pyrazolo[4,3-c]quinolin-3-one]: the inhibition constant (Ki) is 0.35 nM.
The same measure, in the same setting: for `CCc1ccc(-n2nc3c4ccccc4[nH]cc-3c2=O)s1` [Ic1 -2] the value was 1.51 nM; for `Cc1cc(-n2nc3c4ccccc4[nH]cc-3c2=O)sc1C` [Ic1 -3], 0.63 nM; for `CCCCc1ccc(-n2nc3c4ccccc4[nH]cc-3c2=O)s1` [Ic1 -5], 1.53 nM.
For `Cc1ccc2[nH]cc3c(=O)n(-c4ccc(C)s4)nc-3c2c1` [Ic1 -6], the Ki was 0.22 nM.
For the compound `COc1ccc2[nH]cc3c(=O)n(-c4ccc(C)s4)nc-3c2c1` [Ic1 -7], the Ki is 0.17 nM.
Same read-out and setting: for `Cc1ccc(-n2nc3c4cc(Cl)ccc4[nH]cc-3c2=O)s1` [Ic1 -8] the value was 0.31 nM; for `Cc1ccc(-n2nc3c4cc(F)ccc4[nH]cc-3c2=O)s1` [Ic1 -9], 0.14 nM.
Turning to `Cc1ccc2c3nn(-c4ccc(C)s4)c(=O)c-3c[nH]c2c1` [Ic1 -10], the Ki was 1.44 nM.
As to `Cc1ccc(-n2nc3c4ccc(Cl)cc4[nH]cc-3c2=O)s1` [Ic1 -11], the inhibitory constant (Ki) was 1.11 nM.
Same read-out and setting: for `Cc1csc(-n2nc3c4ccccc4[nH]cc-3c2=O)c1` [Ic1 -12] the value was 0.38 nM; for `O=c1c2c[nH]c3ccccc3c-2nn1-c1ccsc1` [Ic2 -1, 2-(3-Thienyl)-2,5-dihydro-3H-pyrazolo[4,3-c]quinolin-3-one], 0.29 nM; for `Cc1cc(-n2nc3c4ccccc4[nH]cc-3c2=O)cs1` [Ic2 -2, 2-[3-(5-methylthienyl)]-2,5-dihydro-3H-pyrazolo[4,3-c]quinolin-3-one], 0.45 nM.
On to `Cc1ccc2[nH]cc3c(=O)n(-c4csc(C)c4)nc-3c2c1` [Ic2 -4], for which the inhibition constant Ki was 0.3 nM.
Same read-out and setting: for `COc1ccc2[nH]cc3c(=O)n(-c4csc(C)c4)nc-3c2c1` [Ic2 -5, 2-[3-(5-methylthienyl)]-8-methoxy-2,5-dihydro-3H-pyrazolo[4,3-c]quinolin-3-one] the value was 0.39 nM.
Same read-out and setting: next, `Cc1cc(-n2nc3c4cc(Cl)ccc4[nH]cc-3c2=O)cs1` [Ic2 -6]: 0.58 nM; `Cc1cc(-n2nc3c4cc(F)ccc4[nH]cc-3c2=O)cs1` [Ic2 -7]: 0.17 nM; `Cc1ccc2c3nn(-c4csc(C)c4)c(=O)c-3c[nH]c2c1` [Ic2 -8]: 1.24 nM.
`Cc1cc(-n2nc3c4ccc(Cl)cc4[nH]cc-3c2=O)cs1` [Ic2 -9]: the Ki was 0.96 nM.

The next experiment deals with male mice. Put plainly: Inverse agonist activity (oral compound 1 hour before subcutaneous pentylenetetrazol, mice). It counts as in vivo. Conditions: Mus musculus, 1 hour before s.c. 75 mg/kg pentylenetetrazol (subconvulsive dose), 8-16 male mice a group, Probit method, read-out: ED50 (dose at which 50% of mice died). As for the experimental part: Inverse agonist activity was evaluated by the following procedure.
The test compound was administered orally to 8-16 male mice a group, 1 hour before a subcutaneous administration of 75 mg/kg of pentylenetetrazol (a subconvulsive dose). The dose (ED50) at which 50% of mice died, was calculated by the Probit method.
For the compound `O=c1c2c[nH]c3ccccc3c-2nn1-c1nccs1` [Control 2, reference compound], the ED50 was determined as 87 mg/kg.
With `Cc1cc(-n2nc3c4ccccc4[nH]cc-3c2=O)cs1` [Ic2 -2, 2-[3-(5-methylthienyl)]-2,5-dihydro-3H-pyrazolo[4,3-c]quinolin-3-one], the median effective dose (ED50) was 1.67 mg/kg.

One may read the Ki as the equilibrium dissociation constant of an inhibitor or competing ligand from its target. The ED50 is the dose at which the effect has come halfway, by size or by number of responders.
